Patent US8518956B2, “1-(1-(2-ethoxyethyl)-3-ethyl-7-(4-methylpyridin-2-ylamino)-1H-pyrazolo[4,3-d]pyrimidin-5-yl) piperidine-4-carboxylic acid and salts thereof” (priority 2005, dated 2013)
Where two headings read alike, the source gives them in different places.

Legend:
PDE11 enzyme = target: T1, PDE11 enzyme (Homo sapiens, UniProt Q9HCR9, DUP921-921); assay: Method 3: Human Recombinant PDE11 Enzyme Inhibition Scintillation Proximity Assay (SPA); type: biochemical; conditions: WO2004096810 examples
T1 construct: FLAG (N); made in house; host or cells: Sf9 insect cells (baculovirus, pFastBac)
T1 sequence (Q9HCR9 with tags, fused parts or gaps DUP921-921 limits assumed): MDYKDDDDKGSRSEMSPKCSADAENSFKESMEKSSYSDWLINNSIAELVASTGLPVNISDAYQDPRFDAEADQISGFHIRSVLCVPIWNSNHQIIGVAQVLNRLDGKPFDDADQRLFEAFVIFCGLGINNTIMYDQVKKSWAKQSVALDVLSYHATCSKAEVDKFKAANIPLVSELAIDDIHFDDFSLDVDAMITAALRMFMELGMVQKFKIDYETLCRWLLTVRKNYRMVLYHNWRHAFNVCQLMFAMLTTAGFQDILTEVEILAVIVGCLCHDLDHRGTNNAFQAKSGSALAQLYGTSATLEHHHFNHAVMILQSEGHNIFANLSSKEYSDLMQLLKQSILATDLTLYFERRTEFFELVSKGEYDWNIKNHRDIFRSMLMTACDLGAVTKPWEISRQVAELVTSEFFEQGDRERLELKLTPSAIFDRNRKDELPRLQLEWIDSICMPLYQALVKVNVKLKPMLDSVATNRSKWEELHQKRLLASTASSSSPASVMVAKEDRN
Procedure: Method 3: Human Recombinant PDE11 Enzyme Inhibition Scintillation Proximity Assay (SPA)
PDE11 Expression and Purification:
Incubate at 27° C. with 220 rpm shaking for 48 hours. Harvest the infected cells by pelleting at 2000 rpm for 10 minutes at 4° C. Store the infected cell pellet at −80° C. until ready for purification. Resuspend the thawed cell pellets to 1×10^7 cells/ml (=20 ml buffer consisting of 20 mM Hepes (pH7.2), 1 mM EDTA, 20 mM sucrose, 150 mM NaCl and protease inhibitor tablets). Mix thoroughly and allow to stand on ice for 10 minutes. Sonicate for 5×5 seconds, on ice. Spin the mixture at 12,000 rpm for 10 minutes at 4° C. in SS34. Store the insoluble pellet at −80° C., and proceed to the purification of the soluble material. • (b) Purification: Prepare the column (1.0 cm diameter, Kontes) by rinsing the empty column twice with TBS. Then mix beads (Anti-FLAG M2 Agarose, Sigma) with TBS and add to the column—allow the beads to settle. Wash the column with 3 column volumes of 0.1M glycine (pH3.5). […] Apply the extract to the column and allow the extract to enter by gravity flow. Reapply the flow-through. Wash the column with 15 column volumes of TBS. Elute the protein with 5×1 ml aliquots of FLAG peptide (Sigma) (i.e., 100 ug/ml in TBS). Elute the remaining protein with 1 ml 0.1M glycine, and immediately add 25 ul 1M Tris pH8 to neutralize. Method 3A: Alternative Human Recombinant PDE11 Enzyme Inhibition Scintillation Proximity Assay (SPA)

PDE6 enzyme = conditions: read-out: METHOD 2: PDE6 IC50; Table F, WO2004096810 examples
Text: Method 2: Human Retina PDE6 Enzyme Inhibition Scintillation Proximity Assay (SPA)
The inhibition of PDE6 enzyme activity by a test compound can be measured in accordance with the in vitro assay of Method 1, but instead using semi-purified PDE6 enzyme isolated from human, bovine or canine retina in place of PDE5 enzyme. […] [3H]GMP binds to yttrium silicate SPA beads and is detected by scintillation counting. • PDE6 Purification: PDE6 can be isolated and purified from the following: Soluble rod PDE6/Rod Outer Segment PDE6 from Bovine eyes (Charles River Ltd, France); Cone PDE6 from Canine eyes (LAS); or Soluble rod and Cone PDE6 from Human eyes (I.I.A.M.).
While supporting the eye with the cornea uppermost, make a small incision through the conjunctiva below the level of the iris. The incision should be sufficient to allow the humor to escape through the cut. Using fine scissors, cut around the cornea to enable it to be lifted off as a flap. Using a small hook, engage the lens and gently pull it out of orbit, taking care not to pull out the retina at the same time. Allow the retina to drop down of its own accord to the base of the orbit.
Lift the retina with care and locate the optic nerve. Cut through the optic nerve and transfer the retina to a small dish containing a few ml of homogenisation buffer. Gently float the retina out on the surface of the buffer and remove any obvious pigmented material from the iris. Place the retina in a second dish with clean buffer to remove last traces of pigment and then transfer to a 50 ml Corning Costar centrifuge tube (Sigma) and keep on ice. • PDE6 Isolation and Purification from Retina: Allow 2 mls of the homogenisation buffer per bovine retina and 1 ml per retina for dog and human. Homogenise using hand-held homogeniser 3×5 second bursts cooling on ice between each burst. Filter homogenate through two layers of surgical gauze. Spin at 100,000 g for 60 minutes at 4° C. […] Run through FPLC (Pharmacia FPLC LKB/FRAC-100, Pharmacia) or aliquot and store in liquid nitrogen as needed. Method 2A: Alternative Human Retina PDE6 Enzyme Inhibition Scintillation Proximity Assay (SPA)

PDE5 enzyme = target: T2, PDE5 enzyme (Homo sapiens, UniProt O76074); assay: Method 1: Human Platelet PDE5 Enzyme Inhibition Scintillation Proximity Assay; type: biochemical; conditions: METHOD 1: PDE5 IC50, Table B, WO2004096810 examples
T2 construct: The PDE5 enzyme isolated from human platelets; from tissue; host or cells: human platelets
In short: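 Human platelet PDE5 hydrolysing 500 nM cGMP (3:1 unlabelled:[3H]) in Tris-HCl pH 7.4 with MgCl2 and BSA, 60 min at 30 °C. Reaction stopped with yttrium silicate SPA beads and [3H]GMP counted by scintillation. IC50 from sigmoid curves over a 10-point half-log dilution series, in duplicate.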

[1] = tested on: spontaneously hypertensive rats (SHR); assay: Method 12: SHR Rat Combination Therapy, blood pressure by telemetry; type: in vivo; conditions: 0.007% in drinking water, day 7
[2] = Table F, read-out: METHOD 3: PDE11 IC50

| SMILES | IC50 (PDE11 enzyme; [2]) [nM] | IC50 (PDE6 enzyme) [nM] | IC50 (PDE5 enzyme) [nM] | IC50 (PDE11 enzyme; METHOD 3: PDE11 IC50, Table F) [nM] | maximal reduction of blood pressure from pre-dose baseline in comparison to vehicle treated group [1] [mmHg] |
| --- | --- | --- | --- | --- | --- |
| Cc1cccc(Nc2nc(N3CCNCC3)nc3c(C)nn(CCOCC(F)(F)F)c23)n1 [WO2004096810 Example 258] | 215 | 198 | 1.99 | – | – |
| CCc1nn(CCOCC(F)(F)F)c2c(Nc3ccnc(C)n3)nc(N3CCN[C@H](C)C3)nc12 [WO2004096810 Example 250] | 3120 | 221 | 2.37 | – | – |
| Cc1nccc(Nc2nc(N3CCN[C@H](C)C3)nc3c(C)nn(CCOCC(F)(F)F)c23)n1 [WO2004096810 Example 246] | 4320 | 657 | 4.46 | – | – |
| COCc1nn(CCOCC(F)(F)F)c2c(Nc3cccc(C)n3)nc(N3CCN[C@H](C)C3)nc12 [WO2004096810 Example 252] | 874 | 307 | 2.81 | – | – |
| CCN(C)c1nc(Nc2ccc(=O)n(C)c2)c2c(n1)c(COC)nn2CCOCC(F)(F)F [WO2004096810 Example 254] | 2880 | 188 | 0.59 | – | – |
| CCc1nn(CCOCC(F)(F)F)c2c(Nc3cc(C)ncn3)nc(N(C)C3CCN(C)CC3)nc12 [WO2004096810 Example 251] | – | 9.51 | 0.25 | 1860 | – |
| CCOCc1nn(CCOCC(F)(F)F)c2c(Nc3cc(C)ccn3)nc(N3CCN[C@H](C)C3)nc12 [WO2004096810 Example 256] | 913 | 275 | 3.82 | – | – |
| COCc1nn(CCOCC(F)(F)F)c2c(Nc3cccc(C)c3)nc(N3CCN[C@H](C)C3)nc12 [WO2004096810 Example 253] | 312 | 100 | 1.2 | – | – |
| CCOC(=O)[C@H](CCc1ccccc1)N[C@@H](C)C(=O)N1CCC[C@H]1C(=O)O [Enalapril, enalapril] | – | – | – | – | 22±2 |
| COCc1nn(CCOCC(F)(F)F)c2c(Nc3cc(C)ccn3)nc(N3CC4CCC(C3)N4)nc12 [WO2004096810 Example 259] | – | 204 | 3.74 | 199 | – |
| CCOCc1nn(CCOCC(F)(F)F)c2c(Nc3cccc(C)n3)nc(N3CCN[C@H](C)C3)nc12 [WO2004096810 Example 255] | 937 | 207 | 1.43 | – | – |
| Cc1ccnc(Nc2nc(N(C)[C@H]3CCN(C)C3)nc3c(C)nn(CCOCC(F)(F)F)c23)c1 [WO2004096810 Example 245] | 390 | 250 | 1.55 | – | – |
| CCc1nn(CCOCC(F)(F)F)c2c(Nc3ccncn3)nc(N3CCN[C@H](C)C3)nc12 [WO2004096810 Example 249] | 1190 | 5.1 | 0.16 | – | – |
| CCc1nn(CCOCC(F)(F)F)c2c(Nc3ccnnc3)nc(N3CCN[C@H](C)C3)nc12 [WO2004096810 Example 248] | 316 | 9.92 | 0.3 | – | – |
